Assays:
human DNMT1 = human DNMT1 (Homo sapiens, UniProt P26358); assay: biochemical
CamA = format: biochemical
CcrM = CcrM (Caulobacter vibrioides, UniProt P0CAW2); format: biochemical
Dam = Dam (Escherichia coli, UniProt P0AEE8); format: biochemical
MBD4 = biological target: T1, MBD4 (Mus musculus, UniProt Q9Z2D7); format: biochemical; settings: inhibitor 2 μM
T1 sequence (Q9Z2D7 411-554 limits assumed): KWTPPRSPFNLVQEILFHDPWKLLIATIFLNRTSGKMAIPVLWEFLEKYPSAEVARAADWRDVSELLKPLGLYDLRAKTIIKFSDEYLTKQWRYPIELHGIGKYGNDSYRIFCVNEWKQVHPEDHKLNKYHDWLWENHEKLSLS

TDG = TDG (Homo sapiens, UniProt Q13569); format: biochemical
MYH = biological target: T2, MYH (Mus musculus, UniProt Q99P21); format: biochemical; settings: inhibitor 2 μM
T2 sequence (Q99P21 1-515): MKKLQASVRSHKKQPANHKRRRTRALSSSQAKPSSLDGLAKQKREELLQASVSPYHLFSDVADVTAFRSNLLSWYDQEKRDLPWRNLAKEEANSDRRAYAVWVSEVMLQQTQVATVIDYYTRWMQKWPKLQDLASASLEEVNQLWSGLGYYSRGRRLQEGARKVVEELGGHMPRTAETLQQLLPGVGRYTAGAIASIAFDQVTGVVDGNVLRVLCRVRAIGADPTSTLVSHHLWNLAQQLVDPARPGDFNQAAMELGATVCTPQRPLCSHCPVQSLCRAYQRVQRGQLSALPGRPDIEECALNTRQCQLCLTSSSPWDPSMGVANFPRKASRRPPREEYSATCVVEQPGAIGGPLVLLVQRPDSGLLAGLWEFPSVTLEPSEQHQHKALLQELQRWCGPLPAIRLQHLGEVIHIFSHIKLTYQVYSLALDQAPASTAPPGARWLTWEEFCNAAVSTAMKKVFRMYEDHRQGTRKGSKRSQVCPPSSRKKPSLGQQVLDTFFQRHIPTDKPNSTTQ

Pol η = biological target: T3, Pol η (Homo sapiens, UniProt Q9Y253); assay: Pol η nucleotide incorporation assay; format: biochemical
T3 sequence (Q9Y253 1-432 limits assumed): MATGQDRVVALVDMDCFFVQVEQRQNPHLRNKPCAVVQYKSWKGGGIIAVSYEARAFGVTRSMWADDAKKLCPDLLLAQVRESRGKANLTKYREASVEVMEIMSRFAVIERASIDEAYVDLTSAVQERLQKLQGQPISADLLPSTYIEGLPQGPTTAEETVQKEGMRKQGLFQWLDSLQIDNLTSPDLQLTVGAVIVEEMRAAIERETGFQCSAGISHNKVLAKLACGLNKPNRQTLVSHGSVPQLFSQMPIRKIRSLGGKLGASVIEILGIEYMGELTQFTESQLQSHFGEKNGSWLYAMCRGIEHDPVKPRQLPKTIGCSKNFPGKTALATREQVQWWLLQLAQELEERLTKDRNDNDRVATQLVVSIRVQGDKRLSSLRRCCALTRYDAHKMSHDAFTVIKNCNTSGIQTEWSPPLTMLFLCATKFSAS

Pol θ = format: biochemical, Human; settings: 50 μM
[1] = test system: A549 human non-small cell lung carcinoma (NSCLC) cells; format: cell-based; settings: three days, same conditions as compound 11
DNMT3A2–3L complex = DNMT3A2–3L complex (Homo sapiens, UniProt Q9Y6K1); format: biochemical; settings: [E]/[DNA] 1:2 versus 1:10, 10 μM

human DNMT1, sequence (P26358 350-1600): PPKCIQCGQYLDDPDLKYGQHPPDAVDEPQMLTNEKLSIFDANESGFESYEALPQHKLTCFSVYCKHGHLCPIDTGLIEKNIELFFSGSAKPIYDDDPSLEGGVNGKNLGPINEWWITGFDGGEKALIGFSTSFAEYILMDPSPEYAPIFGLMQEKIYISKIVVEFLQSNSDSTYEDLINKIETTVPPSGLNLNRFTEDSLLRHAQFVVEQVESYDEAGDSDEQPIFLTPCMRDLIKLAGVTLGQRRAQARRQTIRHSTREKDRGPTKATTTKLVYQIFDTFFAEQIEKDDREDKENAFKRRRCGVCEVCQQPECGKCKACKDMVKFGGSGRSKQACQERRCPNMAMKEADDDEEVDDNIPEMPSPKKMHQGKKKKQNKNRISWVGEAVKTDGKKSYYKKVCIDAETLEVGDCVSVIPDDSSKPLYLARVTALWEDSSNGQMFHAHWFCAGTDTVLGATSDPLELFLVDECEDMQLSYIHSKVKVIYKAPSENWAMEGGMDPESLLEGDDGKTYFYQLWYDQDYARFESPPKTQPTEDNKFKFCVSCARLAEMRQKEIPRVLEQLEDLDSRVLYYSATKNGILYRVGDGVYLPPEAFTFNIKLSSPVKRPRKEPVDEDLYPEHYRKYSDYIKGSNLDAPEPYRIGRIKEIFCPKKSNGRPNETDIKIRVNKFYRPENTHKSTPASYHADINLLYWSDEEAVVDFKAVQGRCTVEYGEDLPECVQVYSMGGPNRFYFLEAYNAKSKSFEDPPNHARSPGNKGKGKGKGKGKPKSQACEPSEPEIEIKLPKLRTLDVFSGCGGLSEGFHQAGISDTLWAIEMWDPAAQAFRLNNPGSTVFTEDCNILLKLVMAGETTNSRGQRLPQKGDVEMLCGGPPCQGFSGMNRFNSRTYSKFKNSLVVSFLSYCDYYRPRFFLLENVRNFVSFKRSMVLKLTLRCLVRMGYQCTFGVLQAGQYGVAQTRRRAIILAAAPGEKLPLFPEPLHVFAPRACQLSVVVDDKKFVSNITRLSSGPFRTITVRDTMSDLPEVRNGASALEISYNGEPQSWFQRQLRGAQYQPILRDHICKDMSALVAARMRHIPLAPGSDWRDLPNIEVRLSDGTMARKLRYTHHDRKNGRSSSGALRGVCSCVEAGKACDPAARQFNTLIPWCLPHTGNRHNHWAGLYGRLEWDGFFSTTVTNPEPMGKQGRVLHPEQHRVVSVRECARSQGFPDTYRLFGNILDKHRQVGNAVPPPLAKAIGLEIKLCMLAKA
CcrM, sequence (P0CAW2 whole entry): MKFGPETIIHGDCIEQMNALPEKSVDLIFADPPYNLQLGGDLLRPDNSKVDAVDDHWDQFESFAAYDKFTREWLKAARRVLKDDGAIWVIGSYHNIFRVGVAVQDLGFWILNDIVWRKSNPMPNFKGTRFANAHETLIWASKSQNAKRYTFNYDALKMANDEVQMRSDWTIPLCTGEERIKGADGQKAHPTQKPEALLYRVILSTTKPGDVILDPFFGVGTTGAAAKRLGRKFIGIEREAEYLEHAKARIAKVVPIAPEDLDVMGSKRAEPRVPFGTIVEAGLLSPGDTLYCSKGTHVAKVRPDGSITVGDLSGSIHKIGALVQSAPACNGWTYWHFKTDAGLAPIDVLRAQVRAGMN
Dam, sequence (P0AEE8 whole entry): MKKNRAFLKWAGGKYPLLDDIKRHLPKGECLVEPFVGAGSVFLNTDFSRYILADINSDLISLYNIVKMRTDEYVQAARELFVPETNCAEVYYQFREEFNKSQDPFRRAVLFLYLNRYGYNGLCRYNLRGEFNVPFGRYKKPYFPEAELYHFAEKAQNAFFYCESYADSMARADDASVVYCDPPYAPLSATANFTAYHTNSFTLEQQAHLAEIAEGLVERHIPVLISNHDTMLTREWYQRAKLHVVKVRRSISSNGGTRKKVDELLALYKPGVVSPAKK
TDG, sequence (Q13569 whole entry): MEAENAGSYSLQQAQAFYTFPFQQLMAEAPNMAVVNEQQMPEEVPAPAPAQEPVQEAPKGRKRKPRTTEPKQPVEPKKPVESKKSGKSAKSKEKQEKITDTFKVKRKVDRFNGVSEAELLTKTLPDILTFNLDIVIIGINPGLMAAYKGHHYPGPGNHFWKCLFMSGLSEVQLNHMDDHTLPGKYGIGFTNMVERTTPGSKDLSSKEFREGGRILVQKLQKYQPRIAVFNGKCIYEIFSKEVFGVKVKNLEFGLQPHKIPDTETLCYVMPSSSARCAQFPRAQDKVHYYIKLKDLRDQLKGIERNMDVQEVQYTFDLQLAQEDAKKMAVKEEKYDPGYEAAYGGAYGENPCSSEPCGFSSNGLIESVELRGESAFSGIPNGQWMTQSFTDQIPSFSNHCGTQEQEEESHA

Q: What does the source list for `Cc1cc(Nc2ccc(NC(=O)c3ccc(Nc4ccnc5ccccc45)cc3)cc2)nc(N)n1` [Compound 1]?
A: inhibition of DNMT1 (human DNMT1; 10 μM compound, [E]/[DNA]=1:10): ~ 70%; inhibition of CamA (CamA; 10 μM): less than 50%; inhibition of CcrM (in words) (CcrM): no inhibitory effect at all; inhibition of Dam (in words) (Dam): no inhibitory effect at all; inhibition of MBD4 activity on T:G mismatch (MBD4): do not exhibit effective inhibition; inhibition of MBD4 activity on U:G mismatch (MBD4): do not exhibit effective inhibition; inhibition of TDG activity on T:G mismatch (TDG): do not exhibit effective inhibition; inhibition of MYH excision of adenine opposite 8-oxoG (MYH): do not exhibit effective inhibition; inhibition of Pol η activity (Pol η; 10 μM compound): more than 50%; inhibition of Pol θ activity (Pol θ): ~ 50%

Q: `CCc1c(C#N)c(SC(C(N)=O)c2ccccc2)nc(N(C)C)c1C#N` (centres unmarked) [GSK3484862] was tested. Which “A549 cell viability / toxicity (in words)” value [1] did it give?
A: Its value is “viabilities similar to control cells”.

Q: `OC[C@H]1O[C@@H](n2cnc3c(NCCCc4ccccc4)ncnc32)[C@H](O)[C@@H]1O` [MC4741, (2R,3S,4R,5R)-2-(Hydroxymethyl)-5-(6-((3-phenylpropyl)-amino)-9H-purin-9-yl)tetrahydrofuran-3,4-diol] was tested. Which IC50 (CamA; read-out: IC50 against CamA) did it give?
A: Its IC50 is 700 nM.

Q: How did the inhibition at 10 µM (human DNMT1; read-out: inhibition of DNMT1) turn out when `Nc1ncnc2c1ncn2[C@@H]1O[C@H](C[C@@H](N)CC[C@H](N)C(=O)O)[C@@H](O)[C@H]1O` [sinefungin] was run?
A: Its inhibition at 10 µM is about 50%.

Q: What about the “change of DNMT3A2–3L inhibition as a function of DNA substrate concentration” value (DNMT3A2–3L complex) of the same compound?
A: The value was “did not change”.

Q: What about the “inhibition of CamA (in words)” value (CamA) of the same compound?
A: The value was “limited inhibition”.

Q: And the “inhibition of CcrM (in words)” value (CcrM)?
A: The value was “significant inhibition”.

Q: And the “impact on Pol η polymerase activity (in words)” value (Pol η; 10 μM)?
A: Its value is “no impact on polymerase activity”.

From publication PMC11663113 (Cell chemical biology, 2024)
